Reference: patent publication US20080113900A1, “Pharmaceutical compositions and therapeutic applications for the use of a synthetic vitamin B12 derivative, glutathionylcobalamin” (priority 2006, published 2008)
“And” between values parts separate entries of the source, which are not always exact repeats. Identical values can stand only once.

System: SK-HEP-1 cells
Assay: Protection of endothelial cells from homocysteine-induced cell death (MTS assay)
Type: cell-based, human
Conditions: for Absorbance at 490 nm: single replicates Y1-Y6
[1] = Conc. Hcy 0.000, NACCbl 30 μM, NAC 75 μM, n = 6
[2] = Conc. Hcy 1.780, NACCbl 30 μM, NAC 75 μM, n = 6
[3] = Conc. Hcy 3.125, NACCbl 30 μM, NAC 75 μM, n = 6
[4] = Conc. Hcy 6.250, NACCbl 30 μM, NAC 75 μM, n = 6
[5] = Conc. Hcy 12.500, NACCbl 30 μM, NAC 75 μM, n = 6
[6] = Conc. Hcy 25.000, NACCbl 30 μM, NAC 75 μM, n = 6
[7] = Conc. Hcy 50.000, NACCbl 30 μM, NAC 75 μM, n = 6
[8] = Conc. Hcy 100.000, NACCbl 30 μM, NAC 75 μM, n = 6
[9] = Conc. Hcy 200.000, NACCbl 30 μM, NAC 75 μM, n = 6

For `CC(=O)NC(C[S-])C(=O)O.CC1=C2N=C(C=C3N=C(C(C)=C4[N-]C(C(CC(N)=O)C4(C)CCC(=O)NCC(C)OP(=O)([O-])OC4C(CO)OC(n5cnc6cc(C)c(C)cc65)C4O)C4(C)N=C1C(CCC(N)=O)C4(C)CC(N)=O)C(CCC(N)=O)C3(C)C)C(CCC(N)=O)C2(C)CC(N)=O.[Co+3]` [NACCbl, N-acetyl-L-cysteinylcobalamin], which “Pre-incubation concentration that protected cells from homocysteine-induced cell death” value (2 hours, then 30 μM homocysteine 24 hours) is on record?
Its value is ≥ 2.0 µM.

What about the “Normalized Data Log 2, Mean” value [1] of the same molecule?
Its value is 94.824.

What about the “Normalized Data Log 10, Mean” value [1] of the same molecule?
Its value is 100.000.

And the “Normalized Data Log 2, Mean” value [2]?
Its value is 91.341.

And the “Normalized Data Log 10, Mean” value [2]?
The value was 96.489.

What about the “Normalized Data Log 2, Mean” value [3] of the same molecule?
The value was 80.699.

And the “Normalized Data Log 10, Mean” value [3]?
Its value is 85.763.

And the “Normalized Data Log 2, Mean” value [4]?
Its value is 75.524.

And the “Normalized Data Log 10, Mean” value [4]?
The value was 80.546.

And the “Normalized Data Log 2, Mean” value [5]?
Its value is 70.387.

And the “Normalized Data Log 10, Mean” value [5]?
Its value is 75.368.

And the “Normalized Data Log 2, Mean” value [6]?
Its value is 62.926.

What about the “Normalized Data Log 10, Mean” value [6] of the same molecule?
Its value is 67.848.

What about the “Normalized Data Log 2, Mean” value [7] of the same molecule?
The value was 56.302.

And the “Normalized Data Log 10, Mean” value [7]?
Its value is 61.171.

What about the “Normalized Data Log 2, Mean” value [8] of the same molecule?
Its value is 52.298.

What about the “Normalized Data Log 10, Mean” value [8] of the same molecule?
Its value is 57.135.

And the “Normalized Data Log 2, Mean” value [9]?
The value was 40.781.

What about the “Normalized Data Log 10, Mean” value [9] of the same molecule?
The value was 45.526.

What about the “Absorbance at 490 nm” value (Conc. of Hcy 0.000, NACCbl 30 μM, NAC 75 μM) of the same molecule?
The value was 2.885 and 2.698 and 2.821 and 2.771 and 2.691 and 2.700.

And the “Absorbance at 490 nm” value (Conc. of Hcy 1.780, NACCbl 30 μM, NAC 75 μM)?
Its value is 2.647 and 2.551 and 2.789 and 2.890 and 2.549 and 2.611.

And the “Absorbance at 490 nm” value (Conc. of Hcy 3.125, NACCbl 30 μM)?
The value was 2.453 and 2.338 and 2.360 and 2.317 and 2.418 and 2.535.

What about the “Absorbance at 490 nm” value (Conc. of Hcy 6.250, NACCbl 30 μM, NAC 75 μM) of the same molecule?
Its value is 2.410 and 2.400 and 2.322 and 2.201 and 2.115 and 2.187.

What about the “Absorbance at 490 nm” value (Conc. of Hcy 12.500, NACCbl 30 μM, NAC 75 μM) of the same molecule?
Its value is 2.210 and 2.110 and 2.045 and 2.065 and 2.101 and 2.324.

What about the “Absorbance at 490 nm” value (Conc. of Hcy 25.000, NACCbl 30 μM, NAC 75 μM) of the same molecule?
The value was 2.100 and 2.190 and 1.879 and 1.937 and 1.779 and 1.837.

And the “Absorbance at 490 nm” value (Conc. of Hcy 50.000, NACCbl 30 μM, NAC 75 μM)?
The value was 1.678 and 1.832 and 1.881 and 1.730 and 1.740 and 1.855.

What about the “Absorbance at 490 nm” value (Conc. of Hcy 100.000, NACCbl 30 μM, NAC 75 μM) of the same molecule?
The value was 1.678 and 1.592 and 1.694 and 1.773 and 1.732 and 1.639.

What about the “Absorbance at 490 nm” value (Conc. of Hcy 200.000, NACCbl 30 μM, NAC 75 μM) of the same molecule?
The value was 1.378 and 1.167 and 1.330 and 1.456 and 1.491 and 1.537.

What about the “Protection against homocysteine-induced damage compared with free thiols” value (Hcy 30 μM, NAC 45 μM, GSH 100 μM, NACCbl 12.5 μM, GSCbl 15 μM) of the same molecule?
The value was “superior to the free thiols”.

What about the “Prevention of cell death compared with NAC and cyanocobalamin + NAC” value (NACCbl 30 μM, variable Hcy) of the same molecule?
The value was “superior to either NAC (75 μM) alone or in combination with CNCbl”.

And the “Absorbance at 490 nm, Mean” value (SK-HEP-1, NACCbl 30 μM, NAC 75 μM, Hcy conc. 200.000, n = 6, label Hcy = Hcy alone)?
Its value is 1.393.

What about the “Mean (FIG. 14, protection of SK-HEP-1 cells from Hcy)” value ([Hcy] 30 μM, [NAC] = 45 μM, [NACCbl] = 12.5 μM, [Folate] = 25 μM where named in the label, label Hcy/HCy = Hcy alone) of the same molecule?
Its value is 1.696.

And the “Mean (FIG. 14a, protection of SK-HEP-1 cells from Hcy in the presence of folate)” value ([Hcy] 30 μM, folate 25 μM present, [GSCbl] = 15 μM, [NACCbl] = 12.5 μM, [CNCbl] = 15 μM, [MeCbl] = 12.5 μM, [HOCbl] = 17.5 μM, [NAC] = 45 μM, [GSH] = 100 μM)?
The value was 2.661.

And the “Absorbance at 490 nm, Mean” value (as E80, Hcy conc. 0.000)?
Its value is 2.761.

What about the “Absorbance at 490 nm, Mean” value (as E80, Hcy conc. 1.780) of the same molecule?
Its value is 2.673.

And the “Absorbance at 490 nm, Mean” value (as E80, Hcy conc. 3.125)?
Its value is 2.404.

What about the “Absorbance at 490 nm, Mean” value (as E80, Hcy conc. 6.250) of the same molecule?
Its value is 2.273.

What about the “Absorbance at 490 nm, Mean” value (as E80, Hcy conc. 12.500) of the same molecule?
Its value is 2.142.

And the “Absorbance at 490 nm, Mean” value (as E80, Hcy conc. 25.000)?
The value was 1.954.

What about the “Absorbance at 490 nm, Mean” value (as E80, Hcy conc. 50.000) of the same molecule?
The value was 1.786.

And the “Absorbance at 490 nm, Mean” value (as E80, Hcy conc. 100.000)?
Its value is 1.685.

And the Survival (compound 30 μM, 50 μM homocysteine)?
The Survival was ~60%.

What about the “Protection compared with GSCbl” value (concentrations below 12.5 μM, 30 μM homocysteine, p<0.001) of the same molecule?
Its value is “significantly greater than that provided by GSCbl”.

And the “Protection from homocysteine-induced cell death” value (pre-incubation 30 μM two hours, variable homocysteine two hours)?
Its value is “protected cells from homocysteine-induced cell death”.

And the Survival (≧12.5 μM NACCbl, then 30 μM homocysteine 24 hours)?
Its Survival is 80%.
